In patent publication US20220127576A1, “COMPOSITIONS AND METHODS FOR STEM CELL THERAPY” (Arizona Board of Regents on Behalf of the University of …, priority 2019, published 2022):
“Also recorded” adds a separate entry of the source.

Columns and labels:
[1] = oral, literature; cited from earlier work
[2] = test system: lymphocyte composition in blood; test: β-AR antagonists / PDE-4 inhibitor given prior to systemic β-AR activation (dynamic exercise): lymphocyte composition and heart rate; type: in vivo, human; conditions: antagonist administered prior to systemic β-AR activation (dynamic exercise model)
Method: Baseline samples were collected before drug/placebo administration and again 3 h later (pre-exercise).
To determine the β-AR subtype involved, a selective β1-AR antagonist (bisoprolol) and non-selective β1+β2-AR antagonist (nadolol) were administered prior to systemic β-AR activation (using dynamic exercise as an experimental model).

[3] = test system: VSTs specific to CMV, EBV and adenovirus antigens; test: Mobilization of viral-specific T-cells (IFN-γ ELISpot and IFN-γ capture assays) with systemic β-AR activation; type: in vivo, human; conditions: healthy humans (n=11)
Source text: Difference from the resting condition indicated by *, p<0.05. Difference from the placebo and bisoprolol trials indicated by #, p<0.05.

VSTs and TCR-γδ cells = test: Mobilization and ex vivo expansion of VSTs and TCR-γδ cells after systemic β-AR activation; type: cell-based, human; conditions: antagonist administered prior to systemic β-AR activation
Source text: (§1) This was largely explained by a shift in the composition of NK-cells and TCR-γδ cells. […] The effects of systemic β-AR activation on the mobilization and ex vivo expansion of VSTs and TCR-γδ cells were β2-AR mediated as the effects were diminished by administering nadolol but not bisoprolol prior to systemic β-AR activation (FIG. 6).

[4] = test system: lymphocytes, lymphocyte subtypes and CD34+ HSCs in whole blood; test: Lymphocyte subtypes and CD34+ HSCs in whole blood at rest and during ISO infusion before and after G-CSF treatment; type: in vivo, human
Source text: Values are the mean (n=7; 3 females).
This graft phenotype is predictive of improved clinical outcomes post alloHSCT, including lower incidence/severity of GvHD and viral infections, better engraftment and a lower incidence of relapse (Table 1).

[5] = test system: leukemia and multiple myeloma target cells; test: In vitro anti-tumor (cytotoxic) activity of mobilized PBHC grafts; type: cell-based, human; conditions: compared to rest / G-CSF only
Source text: Moreover, cytotoxic activity against leukemia and multiple myeloma target cells in vitro was 2-fold greater in the G-CSF+ISO PBHC grafts compared to G-CSF alone. […] Accordingly, in some embodiments, provided herein are compositions and methods for mobilizing stem cells with enhanced properties for use in allogenic or autologous transfers.
as §1

[6] = Heart rate, blood pressure and tolerance during ISO infusion; type: in vivo, human; conditions: ISO 50 ng/kg/min, before and after 5-days G-CSF (5 mcg/kg/day); n=3
Source text: Research Design: Scientific Rigor is maintained through the use of a randomized, complete cross-over, double blind placebo controlled experimental design (above table). This design allows participants to act as their own controls, thus minimizing variability and the impact of potential between-subject confounders. Healthy volunteers report to the lab on six separate occasions at the same time of day. During Visit 1, they undergo an extensive screening procedure to ensure that they meet the study inclusion/exclusion criteria. A blood sample is drawn to determine CMV serostatus (positive or negative) and MR haplotype (A or B), which is included as co-variates in the analysis. Participants then complete six trials on separate days (Visit 2-7) with 7-days interspersed between each trial. During each of these visits, subjects are infused with 50 ng/kg/min of ISO (5 visits) or saline (1 visit) for 30-minutes. Blood samples are drawn before and during the last 10-minutes of the 30-minute infusion protocol. Participants are given orally administered drugs or placebo as a single dose within a few hours prior to ISO infusion. Participants are assigned to trial order using a block randomization scheme with random block sizes of between 2 and 4 subjects to obtain a balanced sample of 8 subjects per trial sequence order (see Statistical Power and Analysis section below). The randomization list is used to create sealed envelopes that are opened to determine assignment to drug order group after visit 1, with the trial order blinded to both the investigators and the participants.

[7] = test system: lymphocytes, lymphocyte subtypes and CD34+ HSCs in whole blood; conditions: ISO dose of 50 ng/kg/min, healthy subjects, literature; cited from earlier work
[8] = test system: lymphocytes, lymphocyte subtypes and CD34+ HSCs in whole blood; test: Lymphocyte subtypes and CD34+ HSCs in whole blood at rest and during ISO infusion before and after G-CSF treatment; type: in vivo, human; conditions: for Absolute number of B cells in whole blood / Absolute number of CD3+ T cells in whole blood / Absolute number of CD4+ T cells in whole blood / Absolute number of CD8+ T cells in whole blood / Absolute number of CD34+ HSCs in whole blood / Absolute number of CM CD4+ T cells in whole blood / Absolute number of CM CD8+ T cells in whole blood / Absolute number of EM CD4+ T cells in whole blood / Absolute number of EM CD8+ T cells in whole blood / Absolute number of EMRA CD4+ T cells in whole blood / Absolute number of EMRA CD8+ T cells in whole blood / Absolute number of NK cells in whole blood / Absolute number of Naïve CD4+ T cells in whole blood / Absolute number of Naïve CD8+ T cells in whole blood / Absolute number of lymphocytes (Lymph.) in whole blood / Absolute number of αβ T cells in whole blood / Absolute number of γδ T cells in whole blood: mean, n = 3
[9] = ISO dose of 50 ng/kg/min, literature; cited from earlier work
[10] = ISO infusion 50 ng/kg/min, before and after 5-days G-CSF (5 mcg/kg/day), n=7
[11] = after G-CSF mobilization, healthy volunteers
[12] = Post G-CSF, during ISO infusion

## O=C(Nc1c(Cl)cncc1Cl)c1ccc(OC(F)F)c(OCC2CC2)c1 [roflumilast]
[1]
  half-life: 15 to 18 h

## CC(C)(C)NCC(O)COc1cccc2c1CC(O)C(O)C2 (centres unmarked) [nadolol]
[2]
  effects of systemic β-AR activation on graft composition shifts: not
[2]; listed as Nadolol
  effects of systemic β-AR activation on graft composition shifts: abrogated
[3]
  effects of systemic β-AR activation on the mobilization of VSTs: inhibits; also recorded: blocked
VSTs and TCR-γδ cells
  effects of systemic β-AR activation on the mobilization and ex vivo expansion of VSTs and TCR-γδ cells: diminished
[1]
  half-life: 14 to 24 h

## COc1ccccc1OCCNCC(O)COc1cccc2[nH]c3ccccc3c12 (centres unmarked) [carvedilol]
[1]
  half-life: 7 to 10 h

## CC(C)NCC(O)COc1ccc(COCCOC(C)C)cc1 (centres unmarked) [bisoprolol]
[2]
  effects of systemic β-AR activation on graft composition shifts: remained favorably altered
[3]
  effects of systemic β-AR activation on the mobilization of VSTs: not
[1]
  half-life: 10 to 12 h

## CC(C)NCC(O)c1ccc(O)c(O)c1 (centres unmarked) [ISO, isoproterenol]
[4]; [10]
  composition of CD4+ TCR-αβ cells and B-cells among total blood lymphocytes: lowers
[4]; [11]
  numbers of CD34 HSCs in peripheral blood / graft: increases; also recorded: without compromising
[5]
  in vitro anti-tumor activity of G-CSF mobilized PBHC grafts: increases
[6]
  systolic hypertension: ~30 mmHg
  tachycardia: ~50 bpm
  tolerance to ISO infusion: excellent tolerance
[7]
  mobilization of lymphocytes to the circulation: robust mobilization
[8]; [10]
  composition of NK-cells and TCR-γδ cells among total blood lymphocytes: markedly increases
[8]; [12]
  Absolute number of B cells in whole blood: 392 cells/ul
  Absolute number of CD3+ T cells in whole blood: 2933 cells/ul
  Absolute number of CD4+ T cells in whole blood: 1835 cells/ul
  Absolute number of CD8+ T cells in whole blood: 795 cells/ul
  Absolute number of CD34+ HSCs in whole blood: 92 cells/ul
  Absolute number of CM CD4+ T cells in whole blood: 298 cells/ul
  Absolute number of CM CD8+ T cells in whole blood: 41 cells/ul
  Absolute number of EM CD4+ T cells in whole blood: 429 cells/ul
  Absolute number of EM CD8+ T cells in whole blood: 342 cells/ul
  Absolute number of EMRA CD4+ T cells in whole blood: 220 cells/ul
  Absolute number of EMRA CD8+ T cells in whole blood: 184 cells/ul
  Absolute number of NK cells in whole blood: 2068 cells/ul
  Absolute number of Naïve CD4+ T cells in whole blood: 886 cells/ul
  Absolute number of Naïve CD8+ T cells in whole blood: 227 cells/ul
  Absolute number of lymphocytes (Lymph.) in whole blood: 6730 cells/ul
  Absolute number of αβ T cells in whole blood: 2253 cells/ul
  Absolute number of γδ T cells in whole blood: 214 cells/ul
[8]; Pre G-CSF, during ISO infusion
  Absolute number of B cells in whole blood: 100 cells/ul
  Absolute number of CD3+ T cells in whole blood: 924 cells/ul
  Absolute number of CD4+ T cells in whole blood: 489 cells/ul
  Absolute number of CD8+ T cells in whole blood: 329 cells/ul
  Absolute number of CD34+ HSCs in whole blood: 6 cells/ul
  Absolute number of CM CD4+ T cells in whole blood: 137 cells/ul
  Absolute number of CM CD8+ T cells in whole blood: 34 cells/ul
  Absolute number of EM CD4+ T cells in whole blood: 80 cells/ul
  Absolute number of EM CD8+ T cells in whole blood: 114 cells/ul
  Absolute number of EMRA CD4+ T cells in whole blood: 13 cells/ul
  Absolute number of EMRA CD8+ T cells in whole blood: 81 cells/ul
  Absolute number of NK cells in whole blood: 778 cells/ul
  Absolute number of Naïve CD4+ T cells in whole blood: 257 cells/ul
  Absolute number of Naïve CD8+ T cells in whole blood: 99 cells/ul
  Absolute number of lymphocytes (Lymph.) in whole blood: 2043 cells/ul
  Absolute number of αβ T cells in whole blood: 830 cells/ul
  Absolute number of γδ T cells in whole blood: 91 cells/ul
[8]; [11]
  ratio of 'favorable' to 'unfavorable' lymphocyte subtypes in peripheral blood: alters
[9]
  safety for infusing healthy subjects: safe

B1: G-CSF: stem cell mobilization agent; filgrastim (G-CSF), 5 mcg/kg/day for 5 days (protein, chains of the INN, looked up)
chain: MTPLGPASSLPQSFLLKCLEQVRKIQGDGAALQEKLCATYKLCHPEELVLLGHSLGIPWAPLSSCPSQALQLAGCLSQLHSGLFLYQGLLQALEGISPELGPTLDTLQLDVADFATTIWQQMEELGMAPALQPTQGAMPAFASAFQRRAGGVLVASHLQSFLEVSYRVLRHLAQP
[8]; Post G-CSF, Rest
  Absolute number of B cells in whole blood: 456 cells/ul
  Absolute number of CD3+ T cells in whole blood: 2755 cells/ul
  Absolute number of CD4+ T cells in whole blood: 1749 cells/ul
  Absolute number of CD8+ T cells in whole blood: 786 cells/ul
  Absolute number of CD34+ HSCs in whole blood: 110 cells/ul
  Absolute number of CM CD4+ T cells in whole blood: 268 cells/ul
  Absolute number of CM CD8+ T cells in whole blood: 47 cells/ul
  Absolute number of EM CD4+ T cells in whole blood: 405 cells/ul
  Absolute number of EM CD8+ T cells in whole blood: 284 cells/ul
  Absolute number of EMRA CD4+ T cells in whole blood: 216 cells/ul
  Absolute number of EMRA CD8+ T cells in whole blood: 154 cells/ul
  Absolute number of NK cells in whole blood: 1158 cells/ul
  Absolute number of Naïve CD4+ T cells in whole blood: 860 cells/ul
  Absolute number of Naïve CD8+ T cells in whole blood: 302 cells/ul
  Absolute number of lymphocytes (Lymph.) in whole blood: 5866 cells/ul
  Absolute number of αβ T cells in whole blood: 2661 cells/ul
  Absolute number of γδ T cells in whole blood: 93 cells/ul
